Experimental data published in patent publication US7662896B2, “Fluorochemical sulfonamide surfactants” (3M Innovative Properties Company, priority 1999, dated 2010).

Key:
[1] = Surface tension in water (Test Procedure I, Kruss K12 Tensiometer); assay type: physicochemical; settings: for Surface Tension (dynes/cm) at Various Surfactant Concentrations: 23 ppm: 23 ppm in water; for Surface Tension (dynes/cm) at Various Surfactant Concentrations: 83 ppm: 83 ppm in water; for Surface Tension (dynes/cm) at Various Surfactant Concentrations: 164 ppm: 164 ppm in water; for Surface Tension (dynes/cm) at Various Surfactant Concentrations: 273 ppm: 273 ppm in water; for Surface Tension (dynes/cm) at Various Surfactant Concentrations: 421 ppm: 421 ppm in water; for Surface Tension (dynes/cm) at Various Surfactant Concentrations: 617 ppm: 617 ppm in water; for Surface Tension (dynes/cm) at Various Surfactant Concentrations: 875 ppm: 875 ppm in water; for Surface Tension (dynes/cm) at Various Surfactant Concentrations: 1032 ppm: 1032 ppm in water
Experimental: Test Procedure I—Surface Tension Determination
All surface tensions were determined using a Kruss K12 Tensiometer. […] The program was run using a Wilhelmy platinum plate (PL12) and glass sample vessel (GL7).

[2] = test system: SPF-bred Sprague Dawley rats; assay: 28-day oral toxicity study by daily gavage in the rat; assay type: in vivo; settings: 28 days daily oral gavage; 3 (C8), 10 (C6), 30 (C4) mg/kg body weight/day
Experimental: (§1) A 28-day oral toxicity study with perfluorooctanesulfonate (C8F17SO3^−) was conducted by daily gavage in the rat followed by 14 and 28 day recovery periods. The dose levels for the study were selected to be 0 mg/kg body weight/day for species control, and 3 mg/kg body weight/day for potassium perfluorooctanesulfonate. The potassium perfluorooctanesulfonate was formulated in 1% aqueous carboxymethyl cellulose and administered daily for 28 days by oral gavage to SPF-bred Sprague Dawley rats. A vehicle control group and a treated group were tested, each consisting of 8 male and 8 female rats. An extra 3 rats per sex per group were allowed 14 days of recovery, and another 3 rats per sex per group were allowed 28 days of recovery.

[3] = Amount of perfluoroalkylsulfonate in male rat liver tissue (HPLC/ESMS/MS); assay type: in vivo; settings: male rat liver
Experimental: as §1
Extracted liver tissue samples from the sacrificed rats of the study were homogenized and extracted using an ion-pairing extraction procedure. The extracts were quantitatively analyzed using high-pressure liquid chromatography/electrospray tandem mass spectroscopy (HPLC/ESMS/MS) and evaluated.

[4] = Contact angle measurement on glass cover slips (Test Procedure II); assay type: physicochemical
Experimental: Test Procedure II—Contact Angle Measurement
Glass cover slips were rinsed with HPLC water and allow to air dry. The surfactant to be tested was mixed at 0.01 weight % with HPLC water. The pH was measured and if below 9, the pH was adjust to 9 by adding several drops of 1% NH4OH. The surface tension of the surfactant solution was determined using Test Procedure I.
A clean, dry glass cover slip was placed in the clamp and lower to ˜1 mm above the surface of the surfactant/water solution. Velocity search was set at 6 mm/min and velocity measure was set at 4 mm/min. Immersion depth was at least 10 mm, depending on the size of the cover slip. Advancing and receding contact angles were measured with 3 cycles. The cover slip was allowed to dry in the clamp, above the solution, for ten minutes. Advancing and receding contact angles were measured a second time with 3 cycles.

[5] = Wetting and film characterization on glass surface (Test Procedure III); assay type: physicochemical
Experimental: Test Procedure III—Wetting and Film Characterization on Glass Surface
A solution of the surfactant to be tested was prepared at 0.01% by weight in HPLC grade water. The surfactant solution pH was measured and if necessary, pH was adjusted to 9 by adding several drops of 1% NH4OH. Glass plates were cleaned using Windex and a squeegee. Cleaned plates placed on top of 5.1 cm by 5.1 cm by 10.2 cm wood supports, which were laid out in a parallel arrangement. Two glass plates were used for each surfactant solution and laid out adjacent to each other. Surfactant solution (10 drops) was placed on each of the two plates and observed for solution hydrophilic or hydrophobic characteristics. The solution was considered hydrophilic if it was spread out and hydrophobic if it beaded up. The surfactant solutions were allowed to air dry and the resulting film on the glass plate observed for solution autophilic or autophobic properties. The solution was considered autophilic if it dried as a sheet and autophobic if it dried in separate puddles. […] On one of the plates with the dried surfactant film was placed 10 drops of the same surfactant solution on top of the area with the dry film. […] On the other plate was placed 10 drops of HPLC grade water on top of the area with the dry film, and hydrophilic or hydrophobic characteristics were observed.

[6] = Dynamic surface tension of water (Kruss Bubble Pressure Tensiometer BP2); assay type: physicochemical; settings: 0.5 weight % in water; for Dynamic Surface Tension (mN/m) at Indicated Bubble Frequency (Hz): 0.01: 0.01 Hz; for Dynamic Surface Tension (mN/m) at Indicated Bubble Frequency (Hz): 0.5: 0.5 Hz; for Dynamic Surface Tension (mN/m) at Indicated Bubble Frequency (Hz): 1.0: 1.0 Hz; for Dynamic Surface Tension (mN/m) at Indicated Bubble Frequency (Hz): 5.0: 5.0 Hz
Experimental: The dynamic surface tension of water containing 0.5 weight % FC-171 (C8F17SO2N(Et)(CH2CH2O)7.5CH3, for which the surface tension was measured in Comparative Example C2, was measured with a Kruss Bubble Pressure Tensiometer, Model BP2 (Kruss USA, Charlotte, N.C.). The results are shown in Table 11.

[7] = 0.01 weight % solution, glass with a film of dried surfactant solution
[8] = 0.01 weight % surfactant solution in HPLC water
[9] = 0.01 weight % solution air dried on glass

Surface Tension (dynes/cm) at Various Surfactant Concentrations: 23 ppm [1] [dynes/cm] | Surface Tension (dynes/cm) at Various Surfactant Concentrations: 83 ppm [1] [dynes/cm] | Surface Tension (dynes/cm) at Various Surfactant Concentrations: 164 ppm [1] [dynes/cm] | Surface Tension (dynes/cm) at Various Surfactant Concentrations: 273 ppm [1] [dynes/cm] | Surface Tension (dynes/cm) at Various Surfactant Concentrations: 421 ppm [1] [dynes/cm] | Surface Tension (dynes/cm) at Various Surfactant Concentrations: 617 ppm [1] [dynes/cm] | Surface Tension (dynes/cm) at Various Surfactant Concentrations: 875 ppm [1] [dynes/cm] | Surface Tension (dynes/cm) at Various Surfactant Concentrations: 1032 ppm [1] [dynes/cm] | Compound | Dynamic Surface Tension (mN/m) at Indicated Bubble Frequency (Hz): 0.01 [6] [mN/m] | Dynamic Surface Tension (mN/m) at Indicated Bubble Frequency (Hz): 0.5 [6] [mN/m] | Dynamic Surface Tension (mN/m) at Indicated Bubble Frequency (Hz): 1.0 [6] [mN/m] | Dynamic Surface Tension (mN/m) at Indicated Bubble Frequency (Hz): 5.0 [6] [mN/m] | also measured
– | – | – | – | – | – | – | – | O=S(=O)([O-])C(F)(F)C(F)(F)C(F)(F)C(F)(F)C(F)(F)C(F)(F)C(F)(F)C(F)(F)F.[K+] [Example C8F17SO3K, potassium perfluorooctanesulfonate] | – | – | – | – | Surface Tension (dynes/cm) at Various Surfactant Concentrations: 10 ppm ([1]; 10 ppm in water): 67.7 dynes/cm; Surface Tension (dynes/cm) at Various Surfactant Concentrations: 100 ppm ([1]; 100 ppm in water): 54.1 dynes/cm; Surface Tension (dynes/cm) at Various Surfactant Concentrations: 1000 ppm ([1]; 1000 ppm in water): 33.1 dynes/cm; Observed effects in treated rats [2]: decreased body weight, decreased blood cholesterol, increased liver size, and hepatocyte hypertrophy; Amount (ppm) of Sulfonate Day 1N* ([3]; day 1, normalized to a feeding level of 3 mg/kg body weight per day): 419 ppm; Amount (ppm) of Sulfonate Day 1 ([3]; day 1 after 28 day dosing at 3 (C8), 10 (C6), 30 (C4) mg/kg/day): 419 ± 86 ppm; Amount (ppm) of Sulfonate Day 14N* ([3]; day 14, normalized to 3 mg/kg body weight per day): 309 ppm; Amount (ppm) of Sulfonate Day 14 ([3]; day 14 of recovery): 309 ± 34 ppm; Amount (ppm) of Sulfonate Day 28N* ([3]; day 28, normalized to 3 mg/kg body weight per day): 237 ppm; Amount (ppm) of Sulfonate Day 28 ([3]; day 28 of recovery): 237 ± 25 ppm
29.5 | 29 | 24 | 17.5 | 16 | 15.5 | 16 | 16.5 | CCN(CC(=O)[O-])S(=O)(=O)C(F)(F)C(F)(F)C(F)(F)C(F)(F)C(F)(F)C(F)(F)C(F)(F)C(F)(F)F.[K+] [FC-129, C8F17SO2N(C2H5)CH2CO2^−K^+] | – | – | – | – | Advancing CA on Dried Surfactant [4, 7]: 64.6 °; Receding CA on Dried Surfactant [4, 7]: 12.2 °; Advancing CA on Clean Glass [4, 8]: 61.6 °; Receding CA on Clean Glass [4, 8]: 7 °; Dried film clarity [5, 9]: clear; Dried film: autophilic or autophobic [5, 9]: autophilic; Solution on clean glass: hydrophilic or hydrophobic ([5]; 0.01 weight % solution in HPLC grade water): hydrophobic; Characteristic the dried film gave to water and to the surfactant solution ([5]; 10 drops placed on the dried film): hydrophilic; Surface Tension (dynes/cm) at Various Surfactant Concentrations: 20 ppm ([1]; 20 ppm in water): 49 dynes/cm; Surface Tension (dynes/cm) at Various Surfactant Concentrations: 200 ppm ([1]; 200 ppm in water): 23 dynes/cm; Surface Tension (dynes/cm) at Various Surfactant Concentrations: 2000 ppm ([1]; 2000 ppm in water): 17 dynes/cm
33.5 | 21 | 20.5 | 19.5 | 19 | 19 | 19 | 19 | CCN(CCOCCOCCOCCOCCOCCOCCOC)S(=O)(=O)C(F)(F)C(F)(F)C(F)(F)C(F)(F)C(F)(F)C(F)(F)C(F)(F)C(F)(F)F [FC-171, C8F17SO2N(C2H5)(CH2CH2O)7CH3] | 51 | 67 | 70 | 71 | –

Compound | Surface Tension (dynes/cm) at Various Surfactant Concentrations: 23 ppm [1] [dynes/cm] | Surface Tension (dynes/cm) at Various Surfactant Concentrations: 83 ppm [1] [dynes/cm] | Surface Tension (dynes/cm) at Various Surfactant Concentrations: 164 ppm [1] [dynes/cm] | Surface Tension (dynes/cm) at Various Surfactant Concentrations: 273 ppm [1] [dynes/cm] | Surface Tension (dynes/cm) at Various Surfactant Concentrations: 421 ppm [1] [dynes/cm] | Surface Tension (dynes/cm) at Various Surfactant Concentrations: 617 ppm [1] [dynes/cm] | Surface Tension (dynes/cm) at Various Surfactant Concentrations: 875 ppm [1] [dynes/cm] | Surface Tension (dynes/cm) at Various Surfactant Concentrations: 1032 ppm [1] [dynes/cm] | Dynamic Surface Tension (mN/m) at Indicated Bubble Frequency (Hz): 0.01 [6] [mN/m] | Dynamic Surface Tension (mN/m) at Indicated Bubble Frequency (Hz): 0.5 [6] [mN/m] | Dynamic Surface Tension (mN/m) at Indicated Bubble Frequency (Hz): 1.0 [6] [mN/m] | Dynamic Surface Tension (mN/m) at Indicated Bubble Frequency (Hz): 5.0 [6] [mN/m] | also measured
C4F9SO2N(CH3)(CH2CH2O)7.5CH3 [Example 1] | 31 | 24 | 23 | 22.5 | 22 | 21.5 | 20 | 20 | 21 | 22 | 22.5 | 23 | Surface tension in water compared with the C8F17 analog (in words) ([1]; water, plotted against concentration in FIGS. 3-5, 7, 8): very similar to that found when using the C8F17 segment
